Laboratory results from patent US20210060166A1, “Method for the preparation of a 1,7-bis (4-hydroxy-3-methoxyphenyl)-1,6-heptadiene-3,5-dione system in polysorbates for the formation of micelles in an aqueous medium aimed at the properties of the bioavailability of curcuminoids” (priority 2019, published 2021).

Legend:
Format in all cases: physicochemical
[1] = integration of curcumin into aqueous phase with polysorbates (UV/VIS 424 nm); details: 25° C.
Protocol: Three concentrations of polysorbate of different value of HLB were evaluated in a 1:1 ratio for each mixture; With this combination of surfactants, 3 aqueous systems were prepared at concentrations of 0.0052%, 0.04% and 0.113% (% weight/weight). The first corresponds to a concentration below the individual Critical Micellar Concentration (CMC) of each surfactant 2.8529 mg/L, the second corresponds to a concentration slightly above the CMC 6.8439 mg/L and the third corresponds to a concentration well above the CMC, respectively 21.222 mg/L (FIG. 1). […] After 30 minutes of stirring at 500 RPM at 25° C., the suspensions were allowed to stand for 30 minutes and a sample from the supernatant was taken for UV/VIS spectrophotometric evaluation at 424 nm, using the 3 mentioned concentrations as blank.
The ability to form a micellar system of 1,7-bis (4-hydroxy-3-methoxyphenyl)-1,6-heptadien-3,5-dione at different percentages of polysorbates was evaluated.

[2] = suspension capacity of polysorbates for curcumin by gravimetry; details: Tween 80-Tween 20 (1:1)
Protocol: The suspension capacity of the polysorbates for 1,7-bis (4-hydroxy-3-methoxyphenyl)-1,6-heptadien-3,5-dione was evaluated by gravimetry according to P[…] THE UNITED MEXICAN STATES (FEUM), volume 1, eleventh edition.
Stating that at ratios of <100 of Tween 20 or 80, the capacity is not sufficient to suspend the required analyte dose. However, after 160 mg/mL (1:1) the presence of precipitate was found. In FIG. 2, different concentrations of polysorbate (Tween 80-Tween 20 (1:1) are specified in which, when mixed with analyte results in absence or presence of analyte precipitate (FIG. 3).

[3] = dialysis release of curcumin through cellulose membrane
Source text: Spectrum™ Spectra/Por™ 4 RC Dialysis Membrane Tubing 12,000 to 14,000 Dalton MWCO, cellulose, was used. The release conditions were pH 6.8, Polysorbate 1, 8%, Polysorbate 2, 4%. The pH 6.8 was used as Kiyohiko Sugano, Hirokazu Hamada, Minoru Machida, Hidetoshi Ushio, Kimitoshi Saitoh, Katsuhide Terada. Optimized conditions of bio-mimetic artificial membrane permeation assay. International Journal of Pharmaceutics Volume 228, Issues 1-2, 9 Oct. 2001, Pages 181-188 to simulate the conditions of the intestine, where the absorption of the compound is carried out. Concentrations of 8 and 4 percent of the polysorbates were used to ensure that the solution is above the CMC and the ability to form micelles is not lost, since the analytical method requires that an amount of release medium gets removed and replenish with simple medium (FEUM, volume 1, eleventh edition.).

## COc1cc(C=CC(=O)CC(=O)C=Cc2ccc(O)c(OC)c2)ccc1O [curcumin, 1,7-bis (4-hydroxy-3-methoxyphenyl)-1,6-heptadien-3,5-dione]
[1]; polysorbates 0.0052% w/w (below CMC)
  curcumin concentration in solution: 2.8529 mg/L
[1]; polysorbates 0.04% w/w (slightly above CMC)
  curcumin concentration in solution: 6.8439 mg/L
[1]; polysorbates 0.113% w/w (well above CMC)
  curcumin concentration in solution: 21.222 mg/L
[2]
  concentration after which presence of precipitate was found: > 160000 µg/mL
[3]; absence of polysorbates in the medium
  concentration released over time: does not show any increase in concentration over time
[3]; pH 6.8, Polysorbate 1 8%, Polysorbate 2 4%, 0.25 h to 20 h
  concentration released over time: increases with time
